# Source: ChEMBL document CHEMBL1201862, “PubChem BioAssay data set” (2004)
# Active and inactive are the calls of the source.
# Legend:
# [1] = system: Streptococcus sp. 'group A'; test: Streptococcus pyogenes SK(-)GAS viability under kanamycin – luminescence, BacTiterGlo, confirmation, counter-screen for streptokinase expression inhibitor project, dose response (AID 1900); format: functional, organism-based
# [2] = Trypanosoma cruzi growth suppression in host cells – NIH3T3 host cells, beta-gal luminescence, confirmation (AID 2044); format: functional, cell-based;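 also: intracellular parasites grown in NIH/3T3 mouse fibroblasts as host cells; luminescent beta-galactosidase reporter signal from transgenic T. cruzi replicating inside host cells; inhibitors lower the luminescence signal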
# Galanin receptor type 2 = Galanin receptor type 2 (Homo sapiens, UniProt O43603); test: Dose Response cell-based high-throughput screening assay to identify agonists of galanin receptor 2 (GALR2). [Related pubchem assays: 864 ]; format: functional
# Sequence of Galanin receptor type 2 (O43603 whole entry): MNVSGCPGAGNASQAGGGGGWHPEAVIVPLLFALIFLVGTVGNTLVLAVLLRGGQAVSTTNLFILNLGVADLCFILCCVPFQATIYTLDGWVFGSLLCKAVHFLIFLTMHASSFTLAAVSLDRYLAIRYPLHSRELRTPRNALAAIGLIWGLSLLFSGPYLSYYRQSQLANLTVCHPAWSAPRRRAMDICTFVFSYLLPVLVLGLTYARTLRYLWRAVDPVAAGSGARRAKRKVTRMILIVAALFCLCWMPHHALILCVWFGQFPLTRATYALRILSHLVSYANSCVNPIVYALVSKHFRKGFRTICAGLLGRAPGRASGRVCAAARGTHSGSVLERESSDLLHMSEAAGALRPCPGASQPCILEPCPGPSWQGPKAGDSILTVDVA
# [3] = NIH3T3 cell viability loss – ATP luminescence, mouse fibroblasts, counter-screen, dose response (AID 2010); format: functional, cell-based;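 also: cells exposed to compound for about 90 hours before reading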
# Streptococcus = test: GAS UMAA2166 growth inhibition – luminescence, BacTiterGlo, counter-screen for streptokinase expression inhibitor project, dose response (AID 1915); format: functional, organism-based;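 also: potency for reduction of bacterial viability or growth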
# INS1 = test: INS-1E survival protection against cytokine death – cell-based, luminescence, retest, dose response (AID 449756); format: functional; conditions: Rattus norvegicus;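 also: cell death triggered by IL-1 beta plus TNF-alpha plus IFN-gamma mixture; protective hits raise ATP signal compared with cytokine alone wells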
# [4] = reduction of Shn3 3'UTR-driven luciferase in osteoblasts – cell-based, Clone20 osteoblasts, firefly luciferase, cherry-picked, dose response (AID 624132); format: functional;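 also: firefly luciferase luminescence from reporter carrying the Shn3 3'UTR in osteoblasts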
# [5] = loss of viability in HepG2 cells – cell-based, CellTiter-Glo, cherry-picked, cytotoxicity control for Shn3 inhibitor project, dose response (AID 624134); format: functional
# [6] = non-specific 3'UTR reporter inhibition in Clone20-Shn3RL – cell-based, Renilla luciferase, cherry-picked, counter-screen for Shn3 inhibitor project, dose response (AID 624133); format: functional
# [7] = molecular target: T1, Probable nicotinate-nucleotide adenylyltransferase (Staphylococcus aureus (strain N315), UniProt P65502); format: functional, Staphylococcus aureus subsp. aureus N315;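 as to IC50 Mean: confirmatory dose-response retesting of NadD inhibitor hits first found in an ultra-high-throughput screen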
# T1 sequence (P65502 whole entry): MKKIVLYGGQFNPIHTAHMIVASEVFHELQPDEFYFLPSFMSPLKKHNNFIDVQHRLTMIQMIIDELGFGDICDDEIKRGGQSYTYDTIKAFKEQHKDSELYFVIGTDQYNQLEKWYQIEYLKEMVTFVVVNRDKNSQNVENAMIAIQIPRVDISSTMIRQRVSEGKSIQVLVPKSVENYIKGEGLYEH
# [8] = molecular target: T1, Probable nicotinate-nucleotide adenylyltransferase; format: functional, Staphylococcus aureus subsp. aureus N315; conditions: read-out: IC50_Mean
# [9] = viability loss in THP-1 monocytes – THP-1 cells, cytotoxicity control for Vif-APOBEC3G degradation inhibitor project, dose response (AID 1117359); format: functional; conditions: THP-1
# [10] = HIV-1 Vif–A3G interaction blockers – biochemical, TR-FRET, GST-Vif 1-94, biotin-A3G peptide, dose response retest, primary screen (AID 1117319); format: functional;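 also: TR-FRET signal of purified GST-Vif binding a biotinylated A3G peptide; inhibitors lower the FRET signal by blocking Vif and A3G binding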
# [11] = molecular target: 5-hydroxytryptamine receptor 1A (Homo sapiens, UniProt P08908); format: functional
# [12] = molecular target: Transitional endoplasmic reticulum ATPase (Homo sapiens, UniProt P55072, C522A); test: Luminescence counterscreen assay for p97 inhibitors: dose response biochemical high throughput screening assay to identify inhibitors of the C522A mutant p97 ATPase: synthesized compounds. [Related pubchem assays: 1481, 1517, 1551 ]
# [13] = molecular target: Transitional endoplasmic reticulum ATPase (Homo sapiens, UniProt P55072); test: Luminescence dose response biochemical high throughput screening assay for inhibitors of the p97 ATPase: synthesized compounds. [Related pubchem assays: 1481, 1517 ]
# Estrogen receptor = molecular target: T2, Estrogen receptor (Homo sapiens, UniProt P03372);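 also: potency for inhibiting coactivator peptide recruitment to the receptor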
# T2 sequence (P03372 whole entry): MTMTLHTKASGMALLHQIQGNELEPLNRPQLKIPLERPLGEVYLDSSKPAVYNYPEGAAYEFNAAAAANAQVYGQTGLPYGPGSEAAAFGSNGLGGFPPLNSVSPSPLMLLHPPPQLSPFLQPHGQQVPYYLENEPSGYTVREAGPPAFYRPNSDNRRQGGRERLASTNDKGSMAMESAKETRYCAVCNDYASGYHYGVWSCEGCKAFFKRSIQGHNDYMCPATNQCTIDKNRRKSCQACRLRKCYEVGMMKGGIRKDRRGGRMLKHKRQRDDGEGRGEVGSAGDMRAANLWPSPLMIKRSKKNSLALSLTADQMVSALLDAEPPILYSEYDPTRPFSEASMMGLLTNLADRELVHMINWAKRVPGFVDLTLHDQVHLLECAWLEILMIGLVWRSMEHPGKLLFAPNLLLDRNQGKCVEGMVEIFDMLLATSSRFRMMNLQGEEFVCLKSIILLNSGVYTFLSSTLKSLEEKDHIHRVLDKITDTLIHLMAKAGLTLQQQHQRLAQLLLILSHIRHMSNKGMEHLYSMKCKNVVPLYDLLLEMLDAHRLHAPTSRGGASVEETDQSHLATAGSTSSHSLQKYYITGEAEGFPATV
# Estrogen receptor beta [14] = molecular target: T3, Estrogen receptor beta (Homo sapiens, UniProt Q92731);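 also: recombinant ER-beta bound to coactivator SRC1 peptide in presence of estradiol agonist; inhibitors block coactivator peptide binding and lower the FRET signal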
# T3 sequence (Q92731 whole entry): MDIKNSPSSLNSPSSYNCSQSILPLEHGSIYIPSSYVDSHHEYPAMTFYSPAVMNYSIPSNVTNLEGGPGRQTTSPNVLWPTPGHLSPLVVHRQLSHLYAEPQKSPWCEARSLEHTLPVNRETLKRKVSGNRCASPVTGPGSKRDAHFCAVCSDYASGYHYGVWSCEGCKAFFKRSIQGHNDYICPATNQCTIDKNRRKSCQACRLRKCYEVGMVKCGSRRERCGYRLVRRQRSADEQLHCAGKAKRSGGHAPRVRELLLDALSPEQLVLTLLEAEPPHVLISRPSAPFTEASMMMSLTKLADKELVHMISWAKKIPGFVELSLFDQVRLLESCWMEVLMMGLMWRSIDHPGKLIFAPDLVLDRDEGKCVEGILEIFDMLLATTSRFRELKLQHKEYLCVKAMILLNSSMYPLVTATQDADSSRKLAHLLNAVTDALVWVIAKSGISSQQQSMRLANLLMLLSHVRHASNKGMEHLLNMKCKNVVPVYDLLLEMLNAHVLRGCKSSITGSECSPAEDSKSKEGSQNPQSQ
# Estrogen receptor beta [15] = molecular target: T3, Estrogen receptor beta; test: blockers of SRC-3 recruitment to ERβ – biochemical, ELISA, streptavidin-HRP readout, orthogonal assay, confirmation (AID 1060)
# [16] = molecular target: Protein-tyrosine kinase 2-beta (Homo sapiens, UniProt Q14289);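 also: potency of inhibitors of PYK2 kinase phosphorylation of poly-GT substrate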
# Sequence of Protein-tyrosine kinase 2-beta (Q14289 whole entry): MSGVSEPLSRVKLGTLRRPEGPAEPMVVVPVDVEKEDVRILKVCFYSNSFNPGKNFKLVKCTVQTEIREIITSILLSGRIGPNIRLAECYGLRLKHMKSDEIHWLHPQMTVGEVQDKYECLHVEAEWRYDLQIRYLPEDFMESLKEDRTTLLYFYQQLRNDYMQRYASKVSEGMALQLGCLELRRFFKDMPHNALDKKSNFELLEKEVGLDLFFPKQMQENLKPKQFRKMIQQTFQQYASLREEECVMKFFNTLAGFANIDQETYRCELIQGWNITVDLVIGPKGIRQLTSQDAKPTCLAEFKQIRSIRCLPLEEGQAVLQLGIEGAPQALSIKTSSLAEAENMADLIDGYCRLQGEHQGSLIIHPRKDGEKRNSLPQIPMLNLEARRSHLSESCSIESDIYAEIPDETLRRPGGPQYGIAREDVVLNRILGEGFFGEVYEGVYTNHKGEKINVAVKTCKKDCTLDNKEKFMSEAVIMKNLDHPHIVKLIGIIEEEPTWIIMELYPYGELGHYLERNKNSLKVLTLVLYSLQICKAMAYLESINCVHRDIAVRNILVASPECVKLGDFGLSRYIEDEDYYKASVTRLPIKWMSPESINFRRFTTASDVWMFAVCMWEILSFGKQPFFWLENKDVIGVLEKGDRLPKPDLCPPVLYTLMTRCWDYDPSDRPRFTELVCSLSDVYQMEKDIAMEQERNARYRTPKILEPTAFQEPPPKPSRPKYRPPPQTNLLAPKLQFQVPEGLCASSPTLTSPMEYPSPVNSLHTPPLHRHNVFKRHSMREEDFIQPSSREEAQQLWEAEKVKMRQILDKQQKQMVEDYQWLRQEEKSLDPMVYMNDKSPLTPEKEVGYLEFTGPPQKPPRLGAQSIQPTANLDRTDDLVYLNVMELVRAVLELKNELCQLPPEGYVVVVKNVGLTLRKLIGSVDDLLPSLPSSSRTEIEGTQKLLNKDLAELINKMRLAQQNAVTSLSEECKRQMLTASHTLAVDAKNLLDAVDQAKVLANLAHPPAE
# 14-3-3 protein gamma = 14-3-3 protein gamma (Homo sapiens, UniProt P61981); test: modulators of 14-3-3 gamma client binding – dose response (AID 711); format: functional
# [17] = molecular target: T4, Short transient receptor potential channel 4 (Mus musculus, UniProt Q9QUQ5); test: block of DAMGO-driven TRPC4 calcium entry – cell-based, HEK293 TRPC4/mu-opioid, Fluo-4 calcium, dose response (AID 434942); format: functional;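 also: potency of inhibitors blocking the TRPC4 calcium response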
# T4 sequence (Q9QUQ5 whole entry): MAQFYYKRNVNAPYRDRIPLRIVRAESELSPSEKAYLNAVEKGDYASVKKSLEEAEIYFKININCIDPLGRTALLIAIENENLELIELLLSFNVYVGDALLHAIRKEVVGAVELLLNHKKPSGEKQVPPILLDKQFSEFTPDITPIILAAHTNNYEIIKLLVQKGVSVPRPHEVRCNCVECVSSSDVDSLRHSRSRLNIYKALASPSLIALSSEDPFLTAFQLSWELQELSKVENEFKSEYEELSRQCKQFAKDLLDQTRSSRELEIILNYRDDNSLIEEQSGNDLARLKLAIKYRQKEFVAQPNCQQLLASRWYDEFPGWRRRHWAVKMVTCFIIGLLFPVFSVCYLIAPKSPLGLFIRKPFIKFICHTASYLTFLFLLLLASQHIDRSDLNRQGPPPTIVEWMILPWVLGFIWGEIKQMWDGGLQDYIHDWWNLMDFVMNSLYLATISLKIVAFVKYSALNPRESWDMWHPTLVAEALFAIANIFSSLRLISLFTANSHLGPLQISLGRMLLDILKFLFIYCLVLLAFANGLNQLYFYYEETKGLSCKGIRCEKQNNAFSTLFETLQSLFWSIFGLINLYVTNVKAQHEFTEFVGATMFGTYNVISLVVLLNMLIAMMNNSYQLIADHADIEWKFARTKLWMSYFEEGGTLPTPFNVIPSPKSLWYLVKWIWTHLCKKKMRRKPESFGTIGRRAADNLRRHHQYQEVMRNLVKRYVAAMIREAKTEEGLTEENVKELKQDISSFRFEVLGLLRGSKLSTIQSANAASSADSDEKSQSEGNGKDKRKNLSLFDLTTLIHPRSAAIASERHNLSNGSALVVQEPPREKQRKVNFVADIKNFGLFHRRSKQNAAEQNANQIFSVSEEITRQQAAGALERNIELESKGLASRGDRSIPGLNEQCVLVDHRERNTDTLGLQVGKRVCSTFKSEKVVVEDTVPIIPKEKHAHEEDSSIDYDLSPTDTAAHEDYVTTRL
# [18] = molecular target: Luciferin 4-monooxygenase (Photinus pyralis, UniProt P08659); test: Counter Screen for Luciferase-based Assay Positives. [Related pubchem assays: 620, 618, 411 ]
# Sequence of Luciferin 4-monooxygenase (P08659 whole entry): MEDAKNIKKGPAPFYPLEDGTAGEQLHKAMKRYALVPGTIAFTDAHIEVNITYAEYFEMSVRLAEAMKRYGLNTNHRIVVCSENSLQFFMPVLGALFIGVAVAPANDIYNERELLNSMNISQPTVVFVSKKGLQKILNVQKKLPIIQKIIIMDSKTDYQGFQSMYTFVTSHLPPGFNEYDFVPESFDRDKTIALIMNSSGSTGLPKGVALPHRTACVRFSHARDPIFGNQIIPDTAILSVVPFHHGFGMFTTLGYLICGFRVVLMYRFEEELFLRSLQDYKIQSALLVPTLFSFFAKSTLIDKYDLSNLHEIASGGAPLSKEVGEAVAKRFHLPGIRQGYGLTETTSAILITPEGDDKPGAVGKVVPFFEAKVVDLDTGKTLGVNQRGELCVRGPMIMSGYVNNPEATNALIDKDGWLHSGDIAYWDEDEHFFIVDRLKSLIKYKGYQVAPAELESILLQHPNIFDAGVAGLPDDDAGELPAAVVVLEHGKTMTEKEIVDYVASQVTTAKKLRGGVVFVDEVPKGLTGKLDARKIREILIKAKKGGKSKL
# HT-1080 = test: HT1080 cell viability loss – fluorescence readout (AID 620); format: functional, cell-based; conditions: Homo sapiens
# [19] = Late stage counterscreen results from the probe development effort to identify activators of signal transducer and activator of transcription 1 (STAT1): luminescence-based cell-based dose response assay to identify cytotoxic compounds.; format: functional
# Troponin, cardiac muscle = Troponin, cardiac muscle (Homo sapiens, UniProt P19429+P45379+P63316); test: Fluorescence-based biochemical high throughput dose response assay for activators of the calcium sensitivity of cardiac Regulated Thin Filaments (RTF). [Related pubchem assays (depositor defined):AID493008, AID493018, AID504382, AID504383]; format: protein-complex assay
# [20] = molecular target: T5, Rac GTPase-activating protein 1 (Homo sapiens, UniProt Q9H0H5); test: blockers of MgcRacGAP-driven Rac1 GTP hydrolysis – biochemical, ADP Hunter fluorescence, primary and confirmatory, confirmation (AID 624330); format: functional
# T5 sequence (Q9H0H5 whole entry): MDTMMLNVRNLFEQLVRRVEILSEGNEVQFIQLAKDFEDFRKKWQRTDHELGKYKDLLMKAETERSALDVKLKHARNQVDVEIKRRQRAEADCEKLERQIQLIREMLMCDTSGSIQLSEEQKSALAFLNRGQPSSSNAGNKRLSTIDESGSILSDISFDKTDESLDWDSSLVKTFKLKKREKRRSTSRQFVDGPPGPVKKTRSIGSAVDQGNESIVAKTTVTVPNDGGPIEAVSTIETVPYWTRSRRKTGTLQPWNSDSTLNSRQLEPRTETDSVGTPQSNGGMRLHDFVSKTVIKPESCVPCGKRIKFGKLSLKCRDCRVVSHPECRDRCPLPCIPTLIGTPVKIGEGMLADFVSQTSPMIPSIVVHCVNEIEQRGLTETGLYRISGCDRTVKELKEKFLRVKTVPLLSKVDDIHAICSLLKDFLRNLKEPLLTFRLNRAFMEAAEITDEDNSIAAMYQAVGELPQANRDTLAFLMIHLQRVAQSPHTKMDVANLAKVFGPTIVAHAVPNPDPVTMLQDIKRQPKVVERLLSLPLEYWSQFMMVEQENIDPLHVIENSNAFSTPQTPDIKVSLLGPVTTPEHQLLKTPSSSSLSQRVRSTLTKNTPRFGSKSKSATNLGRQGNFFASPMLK
# [21] = M. tuberculosis H37Rv growth inhibitors, H37Rv strain (AID 1626); format: functional
# [22] = molecular target: T6, Calpain-2 catalytic subunit (Sus scrofa, UniProt P43367); test: m-calpain protease blockers, concentration series – biochemical, fluorogenic peptide substrate, dose response (AID 1420); format: functional
# T6 sequence (P43367 whole entry): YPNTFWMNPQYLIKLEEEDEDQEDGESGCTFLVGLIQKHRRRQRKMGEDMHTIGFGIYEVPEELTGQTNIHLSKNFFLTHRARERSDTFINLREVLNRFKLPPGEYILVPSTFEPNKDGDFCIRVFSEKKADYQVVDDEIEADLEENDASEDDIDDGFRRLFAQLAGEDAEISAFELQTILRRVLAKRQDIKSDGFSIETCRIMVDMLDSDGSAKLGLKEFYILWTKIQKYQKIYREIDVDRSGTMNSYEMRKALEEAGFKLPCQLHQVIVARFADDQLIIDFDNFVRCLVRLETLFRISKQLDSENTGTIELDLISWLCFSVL
# [23] = molecular target: Voltage-gated inwardly rectifying potassium channel KCNH2 (Homo sapiens, UniProt Q12809); test: concentration-dependent hERG rescue from blockers – cell-based, thallium flux, dose response (AID 2121); format: ADME
# Sequence of Voltage-gated inwardly rectifying potassium channel KCNH2 (Q12809 whole entry): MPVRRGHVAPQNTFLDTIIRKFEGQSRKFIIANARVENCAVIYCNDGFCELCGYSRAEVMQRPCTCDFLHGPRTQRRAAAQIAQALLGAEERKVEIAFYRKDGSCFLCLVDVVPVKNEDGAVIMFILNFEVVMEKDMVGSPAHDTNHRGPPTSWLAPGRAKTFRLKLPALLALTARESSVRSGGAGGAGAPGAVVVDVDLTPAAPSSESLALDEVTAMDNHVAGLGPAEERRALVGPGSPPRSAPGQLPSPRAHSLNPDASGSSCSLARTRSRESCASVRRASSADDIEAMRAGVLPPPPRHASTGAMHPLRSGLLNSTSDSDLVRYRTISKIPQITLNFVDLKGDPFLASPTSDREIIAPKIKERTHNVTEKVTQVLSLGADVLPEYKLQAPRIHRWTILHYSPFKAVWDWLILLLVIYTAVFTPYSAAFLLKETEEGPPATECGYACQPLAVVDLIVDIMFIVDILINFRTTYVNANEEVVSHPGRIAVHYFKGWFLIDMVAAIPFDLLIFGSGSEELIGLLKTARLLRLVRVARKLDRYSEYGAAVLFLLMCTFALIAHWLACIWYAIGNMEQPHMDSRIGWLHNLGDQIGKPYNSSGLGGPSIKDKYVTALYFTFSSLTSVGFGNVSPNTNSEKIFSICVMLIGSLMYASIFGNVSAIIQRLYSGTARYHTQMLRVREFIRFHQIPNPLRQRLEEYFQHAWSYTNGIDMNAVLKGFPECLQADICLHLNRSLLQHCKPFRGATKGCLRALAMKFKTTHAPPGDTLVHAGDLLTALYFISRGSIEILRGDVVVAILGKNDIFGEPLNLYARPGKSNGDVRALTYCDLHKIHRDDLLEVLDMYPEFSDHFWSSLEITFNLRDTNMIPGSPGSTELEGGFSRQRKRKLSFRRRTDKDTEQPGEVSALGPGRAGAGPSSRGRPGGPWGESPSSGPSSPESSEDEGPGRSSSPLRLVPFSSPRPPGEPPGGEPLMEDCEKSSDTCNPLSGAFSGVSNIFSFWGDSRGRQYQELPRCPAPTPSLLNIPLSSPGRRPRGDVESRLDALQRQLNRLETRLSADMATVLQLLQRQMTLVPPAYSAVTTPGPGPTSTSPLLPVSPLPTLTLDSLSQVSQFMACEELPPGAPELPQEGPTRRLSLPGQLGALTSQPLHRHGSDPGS
# SUMO-activating enzyme [24] = molecular target: T7, SUMO-activating enzyme (Homo sapiens, UniProt Q9UBT2); test: blockers of UBC9-mediated SUMO conjugation – biochemical, AlphaScreen, SUMOylation inhibitor project, confirmation (AID 2018); format: functional
# T7 sequence (Q9UBE0 whole entry): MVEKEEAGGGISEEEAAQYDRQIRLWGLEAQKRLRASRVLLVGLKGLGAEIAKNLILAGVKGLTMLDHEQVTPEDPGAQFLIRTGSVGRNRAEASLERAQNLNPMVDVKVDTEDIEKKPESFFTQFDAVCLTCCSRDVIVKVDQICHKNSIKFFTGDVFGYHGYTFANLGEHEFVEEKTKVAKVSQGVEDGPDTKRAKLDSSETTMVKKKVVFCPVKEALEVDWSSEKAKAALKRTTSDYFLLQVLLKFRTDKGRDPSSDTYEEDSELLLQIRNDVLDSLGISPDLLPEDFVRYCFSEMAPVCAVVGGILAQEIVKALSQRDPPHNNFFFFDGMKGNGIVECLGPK
# T7 sequence (Q9UBT2 whole entry): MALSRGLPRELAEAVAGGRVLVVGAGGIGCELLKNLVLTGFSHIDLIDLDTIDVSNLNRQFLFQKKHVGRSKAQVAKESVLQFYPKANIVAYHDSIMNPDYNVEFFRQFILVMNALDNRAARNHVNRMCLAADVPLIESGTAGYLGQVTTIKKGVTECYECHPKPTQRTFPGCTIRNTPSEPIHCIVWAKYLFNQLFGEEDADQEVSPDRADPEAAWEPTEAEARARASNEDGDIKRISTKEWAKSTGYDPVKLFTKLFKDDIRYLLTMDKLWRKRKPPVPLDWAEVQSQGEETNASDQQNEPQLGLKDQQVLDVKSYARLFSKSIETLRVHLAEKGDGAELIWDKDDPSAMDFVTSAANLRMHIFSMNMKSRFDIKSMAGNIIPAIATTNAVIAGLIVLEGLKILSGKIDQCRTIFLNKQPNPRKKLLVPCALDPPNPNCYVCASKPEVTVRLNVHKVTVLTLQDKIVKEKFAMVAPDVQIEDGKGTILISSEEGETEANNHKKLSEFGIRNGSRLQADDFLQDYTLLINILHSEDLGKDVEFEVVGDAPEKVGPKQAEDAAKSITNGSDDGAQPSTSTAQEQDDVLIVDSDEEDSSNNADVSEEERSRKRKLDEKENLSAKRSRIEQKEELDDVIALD
# SUMO-activating enzyme [25] = molecular target: T7, SUMO-activating enzyme; test: blockers of SAE1/SAE2–UBC9 SUMO transfer – biochemical, HTRF, uHTS, primary screen (AID 2006); format: protein-complex assay
# [26] = molecular target: Aryl hydrocarbon receptor (Homo sapiens, UniProt P35869); test: Luminescence-based cell-based high throughput dose response assay for activators of the Aryl Hydrocarbon Receptor (AHR). [Related pubchem assays: 2796 (Primary screen (AHR activators in singlicate)), 2845 (Confirmation screen (AHR activators in triplicate)), 434939 (Counterscreen (PXR activators in triplicate)), 2804 (Summary (AHR activators))]; format: ADME
compound,measurement,setting,value
Cc1cccc2sc(NNC(=O)c3ccc(S(=O)(=O)N4CC(C)CC(C)C4)cc3)nc12 (stereo not drawn),EC50,[1],1.18 µM (active)
same,EC50,[2],1.22 µM (active)
same,EC50,Galanin receptor type 2,> 55.7 µM (not active)
same,EC50,[3],7.47 µM (active)
same,EC50,Streptococcus,4.98 µM (active)
same,AC50,INS1,1.73 µM (active)
same,AC50,[4],2.57 µM (active)
same,AC50,[5],5.61 µM (active)
same,AC50,[6],5.72 µM (active)
same,IC50,[7],8.16 µM (active)
same,IC50,[8],42.1 µM (active)
same,CC50,[9],2.27 µM (active)
same,IC50,[10],> 100 µM (active)
C1=C(c2c[nH]c3ccccc23)CCNC1,EC50,[11],> 50 µM (not active)
N#Cc1ccc(Nc2nc(-c3cccc(Br)c3)cs2)cc1,IC50,[12],> 50 µM (not active)
same,IC50,[13],> 50 µM (not active)
CC(=O)c1ccc(NCC(=O)N2CCN(c3ccccc3)CC2)cc1,IC50,Estrogen receptor,5.02 µM (active)
same,IC50,Estrogen receptor beta [14],2.64 µM (active)
same,IC50,Estrogen receptor beta [15],37.1 µM (not active)
same,IC50,[16],> 69.5 µM (not active)
COc1ccc(Nc2cc(C)nc3ccccc23)cc1,IC50,14-3-3 protein gamma,> 50 µM (not active)
same,EC50,[17],2.99 µM (active)
N#C/C(=C\c1ccc(N2CCOCC2)o1)c1nc2ccccc2[nH]1,EC50,[18],> 100 µM (not active)
same,EC50,HT-1080,> 50 µM (not active)
same,IC50,[19],> 55.7 µM (not active)
same,EC50,"Troponin, cardiac muscle",0.5 µM (active)
same,IC50,[20],12.2 µM (active)
Cn1cc(CN2CCN(c3ccc(Cl)cn3)CC2)c(-c2ccccc2F)n1,IC50,[21],> 100 µM (active)
S=c1[nH]nc(CSc2nc3ccccc3s2)n1C1CCCCC1,IC50,[22],14.3 µM (not active)
same,EC50,[23],9.55 µM (active)
O=c1[nH]/c(=N\c2ccc(Br)cc2)sc2ccc([N+](=O)[O-])cc12,IC50,SUMO-activating enzyme [24],34.6 µM (active)
same,IC50,SUMO-activating enzyme [25],15.9 µM (active)
same,EC50,[26],5.11 µM (active)
